These results are taken from publication PMC10952255, “Solid‐Phase Synthesis and Biological Evaluation of Peptides ADP‐Ribosylated at Histidine” (Angewandte Chemie (Weinheim an Der Bergstrasse, Germany), 2023).

The nature of data set [1]: Chemical stability assay (LC-MS based) under acidic, basic and nucleophilic conditions. The class given is physicochemical. An excerpt:
Having prepared ADPr‐His peptides 26–28, we tested their stability under basic and acidic conditions in an LC–MS‐based assay to evaluate their sensitivity for future synthetic and biochemical studies. A selected set of chemically diverse conditions (aqueous acid, aqueous base and a neutral nucleophile) was probed because these are commonly applied in proteomic studies to identify ADP‐ribosylation sites[22] in proteins or during sample preparation.[14, 28] Aqueous solutions of the ADPr peptides with a final concentration of 0.1 M TFA, 0.1 M NaOH or 0.5 M NH2OH were prepared and shaken for 24 h at room temperature. […] In contrast, the NaOH treatment led to some conversion of the N(τ)‐ribosylated histidines 26 and 27 into products with an identical mass (approximately 7 and 11 %, respectively), indicating a slow epimerization of the modified histidine residue in N(τ)‐ribosyl peptides. […]
Figure 5 A) Chemical stability of peptide 28 under basic conditions (NaOH, 0.1 M). […] Peptide degradation was quantified by analyzing the UV‐trace (260 nm) using Xcalibur software. […] Enzymatic turnover of the various peptides was assessed by monitoring AMP release directly (NudT16) or converting released ADPr via NudT5 to AMP. AMP was measured using the AMP‐Glo assay (Promega). Samples are background corrected and normalized to NudT16 activity The data represents mean values±SD measured in triplicates. […]

For data set [2] the following is noted: quoted without reference; cited from earlier work.

Starred links: 1 amine or outer side, 2 acyl side, 3 side chain; linkers in the order of their positions; H or OH if unused. Non-standard residues stand in square brackets, D forms with d. Residues, ends and D or L forms follow the SMILES beside them. X1 = Nc1ncnc2c1ncn2[C@@H]1O[C@H](COP(=O)(O)OP(=O)(O)OC[C@H]2O[C@H](n3cncc3C[C@H](N[*:1])C(=O)[*:2])[C@H](O)[C@@H]2O)[C@@H](O)[C@H]1O

Take `CC(C)C[C@H](NC(=O)CNC(=O)[C@H](C)NC(=O)CNC(=O)[C@H](Cc1cncn1[C@H]1O[C@H](COP(=O)(O)OP(=O)(O)OC[C@H]2O[C@@H](n3cnc4c(N)ncnc43)[C@H](O)[C@@H]2O)[C@@H](O)[C@H]1O)NC(=O)[C@H](Cc1ccccc1)NC(=O)[C@@H](N)[C@@H](C)O)C(=O)N[C@H](C(=O)N[C@H](C(=O)N1CCC[C@H]1C(=O)N[C@H](C(=O)N[C@@H](CC(=O)O)C(=O)N[C@@H](CCCCN)C(=O)O)C(C)C)C(C)C)C(C)C` [compound 28] (H-TF[X1]GAGLVVPVDK-OH): the “ADPr-peptide remaining in its original form” value in data set [1] (0.1 M NaOH, after 24 h, LC-MS UV-trace 260 nm) was “approximately 60%”. Also, in data set [1] (alkaline treatment (0.1 M NaOH), after a week, LC-MS), the “degradation of the pyrophosphate linkage” value is given as “no degradation of the pyrophosphate linkage was observed”. As to `c1c[nH]nn1` [1,2,3‐triazole], the pKa in data set [2] is listed as 9.4.

As usually defined, the pKa is the negative logarithm of the acid dissociation constant.
